± gives the expanded uncertainty stated by the source.
What was measured:
[1] = 298.1 K; 101.33 kPa; Liquid; Vibrating tube method
[2] = osmotic coefficient (dimensionless); mn = molality of the nth substance listed, in mol/kg; details: 298.15 K, Liquid, isopiestic method

CO [methanol]
mass density [1]: 787.5 ± 0.16 kg/m3

CO [methanol] + CC(=O)Nc1ccc(O)cc1
osmotic coefficient ([2]; m1 = 0.0931): 0.998 ± 0.001 | osmotic coefficient ([2]; m1 = 0.1398): 1.001 ± 0.001 | osmotic coefficient ([2]; m1 = 0.2163): 1.001 ± 0.001 | osmotic coefficient ([2]; m1 = 0.3514): 1 ± 0.001 | osmotic coefficient ([2]; m1 = 0.5633): 1.002 ± 0.001 | osmotic coefficient ([2]; m1 = 1.006): 1.009 ± 0.001 | osmotic coefficient ([2]; m1 = 1.236): 1.01 ± 0.001 | osmotic coefficient ([2]; m1 = 1.4): 1.015 ± 0.001 | osmotic coefficient ([2]; m1 = 1.578): 1.017 ± 0.001 | osmotic coefficient ([2]; m1 = 1.866): 1.02 ± 0.001 | osmotic coefficient ([2]; m1 = 2.465): 1.027 ± 0.002 | osmotic coefficient ([2]; m1 = 2.762): 1.033 ± 0.002 | osmotic coefficient ([2]; m1 = 3.096): 1.041 ± 0.003 | osmotic coefficient ([2]; m1 = 3.56): 1.055 ± 0.004 | osmotic coefficient ([2]; m1 = 3.974): 1.068 ± 0.004 | osmotic coefficient ([2]; m1 = 4.175): 1.075 ± 0.005 | osmotic coefficient ([2]; m1 = 4.812): 1.099 ± 0.006 | osmotic coefficient ([2]; m1 = 5.316): 1.12 ± 0.008 | osmotic coefficient ([2]; m1 = 6.17): 1.159 ± 0.01 | osmotic coefficient ([2]; m1 = 6.418): 1.171 ± 0.011 | osmotic coefficient ([2]; m1 = 6.833): 1.19 ± 0.012 | osmotic coefficient ([2]; m1 = 7.073): 1.21 ± 0.013
